Measured values published in patent US20240182436A1, “SUBSTITUTED SULFONAMIDE-CHROMAN COMPOUNDS, AND PHARMACEUTICAL COMPOSITIONS, AND METHODS OF USE THEREOF” (priority 2021, published 2024).

Tested on: Harmaline-induced tremor
Assay: Harmaline-induced Tremor Model
Format: in vivo
Conditions: adult male CD1 mice, test article 30 mg/kg i.p., harmaline 30 mg/kg i.p.; for inhibition in vivo at 30 mg/kg: Mus musculus, ip, read-out: Tremor Suppression Activity (magnitude of tremor suppression in percent compared to vehicle); for Tremor power relative to baseline (mean ± s.e.m.): 10-20 Hz power over 20 min relative to 20-min baseline
Text: Harmaline-induced Tremor: Harmaline-induced tremor is widely recognized as an animal model of Essential Tremor (ET). Following acute administration, harmaline produces an 8-16 Hz tremor in rodents, cats, and monkeys that, like ET, is postural and kinetic, involving appendicular and axial musculature (Handforth, A. (2012). Harmaline tremor: underlying mechanisms in a potential animal model of essential tremor. Tremor and Other Hyperkinetic Movements (NY), 2, 02-92-769-1; Handforth, A. (2016). Linking Essential Tremor to the Cerebellum-Animal Model Evidence. Cerebellum, 15(3), 285-298; LeDoux, M. (2005). Harmaline tremor. In Movement Disorders. Elsevier Inc.; Louis, E. D. (2014). Re-thinking the biology of essential tremor: From models to morphology. Parkinsonism and Related Disorders, 20 (SUPPL.1), S88-S93). […] Clinical agents that suppress ET in patients are generally effective in the harmaline-induced tremor model (Handforth 2016). Following acute dosing of harmaline in mice, the tremor frequency (10-20 Hz) is typically recorded using an automated force plate-based system.
Procedure: Tremor activity was measured using a custom-made testing apparatus containing a piezoelectric sensing platform which was connected to an amplifier (A-M Systems model 1700). Adult male CD1 mice were brought to the experiment room for acclimatization 1 h prior to testing. Mice were first placed inside the testing apparatus for 10 min baseline habituation. After the initial habituation, mice were treated with vehicle (10 ml/kg) or test article (30 mg/kg, i.p.) and placed back in the apparatus for an additional 20 min baseline recording. Subsequently, animals were injected with harmaline (30 mg/kg, i.p.) and tremor activity was measured for 20 min. The electric signal of tremor activity was amplified at a sampling rate of 512 Hz with a multichannel amplifier and then acquired, quantized, and digitized by a data acquisition unit (CED Micro 1401). The software Spike2 (v 7.07, Cambridge Electronic Design, Cambridge, UK) was used to analyze the tremor signal by performing Fourier transformation of the data into frequency spectra. Changes in absolute power were expressed relative to each animal's 20-min baseline for the frequencies of 10-20 Hz. Comparisons between treatment and respective vehicle groups were assessed with two-tailed, Student's t-test. The level of statistical significance was defined as p<0.05 (see, e.g., Table 2.1) The magnitude of tremor suppression in percent compared to vehicle is shown in Table 2.2.
A tremor suppression score was defined as the magnitude of tremor suppression in percent compared to vehicle: ≤24% (D), 25-55% (C), 56-70% (B) and 71-100% (A). Not tested (---).

SMILES | inhibition in vivo at 30 mg/kg | Tremor Suppression Activity (magnitude of tremor suppression in percent compared to vehicle) | Tremor power relative to baseline (mean ± s.e.m.)
C[C@H]1COc2ccc(F)cc2[C@H]1CS(N)(=O)=O (relative stereo) [Compound 53, ((3R*,4S*)-6-fluoro-3-methylchroman-4-yl)methanesulfonamide] | 25 to 55% | – | –
C[C@@H]1COc2cc(F)ccc2[C@H]1NS(N)(=O)=O (relative stereo) [Compound 76, (3(S*),4(S*))-7-fluoro-3-methyl-4-(sulfamoylamino)-3,4-dihydro-2(H)-chromene] | 56 to 70% | – | –
NS(=O)(=O)CC1CC2(CC2)Oc2cc(F)ccc21 (single isomer, unassigned) [Compound 1, (S*)-(7-fluorospiro[chromane-2,1′-cyclopropan]-4-yl)methanesulfonamide] | 56 to 70% | – | –
NS(=O)(=O)CC1CC2(CC2)Oc2cc(F)ccc21 (single isomer, unassigned) [Compound 2, (R*)-(7-fluorospiro[chromane-2,1′-cyclopropan]-4-yl)methanesulfonamide] | – | A (71-100% (A)) | –
NS(=O)(=O)CC1CC2(CCC2)Oc2cc(F)ccc21 (single isomer, unassigned) [Compound 3, (S*)-(7-fluorospiro[chromane-2,1′-cyclobutan]-4-yl)methane-sulfonamide] | – | C (25-55% (C)) | –
NS(=O)(=O)CC1CC2(CCC2)Oc2cc(F)ccc21 (single isomer, unassigned) [Compound 4, (R*)-(7-fluorospiro[chromane-2,1′-cyclobutan]-4-yl)methane-sulfonamide] | – | B (56-70% (B)) | –
CC1(C)CC(CS(N)(=O)=O)c2cc(F)c(F)cc2O1 (single isomer, unassigned) [Compound 5, (S*)-(6,7-difluoro-2,2-dimethylchroman-4-yl)methanesulfonamide] | – | C (25-55% (C)) | –
CC1(C)CC(CS(N)(=O)=O)c2cc(F)c(F)cc2O1 (single isomer, unassigned) [Compound 6, (R*)-(6,7-difluoro-2,2-dimethylchroman-4-yl)methanesulfonamide] | – | A (71-100% (A)) | –
NS(=O)(=O)CC1CCOc2c1ccc(F)c2F (single isomer, unassigned) [Compound 15, (S*)-(7,8-difluorochroman-4-yl)methanesulfonamide] | – | C (25-55% (C)) | –
NS(=O)(=O)CC1CCOc2c1ccc(F)c2F (single isomer, unassigned) [Compound 16, (R*)-(7,8-difluorochroman-4-yl)methanesulfonamide] | – | B (56-70% (B)) | –
NS(=O)(=O)CC1CCOc2cc(F)cc(F)c21 (single isomer, unassigned) [Compound 17, (S*)-(5,7-difluorochroman-4-yl)methanesulfonamide] | 56 to 70% | – | –
NS(=O)(=O)C1(C2CCOc3cc(F)ccc32)CC1 (single isomer, unassigned) [Compound 27, (S*)-1-(7-fluorochroman-4-yl)cyclopropane-1-sulfonamide] | ≤ 24% | – | –
NS(=O)(=O)C1(C2CCOc3cc(F)ccc32)CC1 (single isomer, unassigned) [Compound 28, (R*)-1-(7-fluorochroman-4-yl)cyclopropane-1-sulfonamide] | – | C (25-55% (C)) | –
NS(=O)(=O)CC1CCOc2cc(F)c(F)cc21 (single isomer, unassigned) [Compound 29, (S*)-(6,7-difluorochroman-4-yl)methanesulfonamide] | 56 to 70% | – | –
NS(=O)(=O)CC1CCOc2cc(F)c(F)cc21 (single isomer, unassigned) [Compound 30, (R*)-(6,7-difluorochroman-4-yl)methanesulfonamide] | – | A (71-100% (A)) | –
NS(=O)(=O)CC1CCOc2cc(Cl)ccc21 (single isomer, unassigned) [Compound 31, (S*)-(7-chlorochroman-4-yl)methanesulfonamide] | 71 to 100% | – | –

SMILES | inhibition in vivo at 30 mg/kg | Tremor Suppression Activity (magnitude of tremor suppression in percent compared to vehicle) | Tremor power relative to baseline (mean ± s.e.m.)
NS(=O)(=O)CC1CCOc2cc(Cl)ccc21 (single isomer, unassigned) [Compound 32, (R*)-(7-chlorochroman-4-yl)methanesulfonamide] | – | B (56-70% (B)) | –
NS(=O)(=O)CC1CCOc2cc(C(F)(F)F)ccc21 (single isomer, unassigned) [Compound 37, (S*)-(7-(trifluoromethyl)chroman-4-yl)methanesulfonamide] | 56 to 70% | – | –
NS(=O)(=O)CC1CCOc2cc(C(F)(F)F)ccc21 (single isomer, unassigned) [Compound 38, (R*)-(7-(trifluoromethyl)chroman-4-yl)methanesulfonamide] | – | A (71-100% (A)) | –
CC1(C)COc2cc(F)ccc2C1CS(N)(=O)=O (single isomer, unassigned) [Compound 43, (S*)-(7-fluoro-3,3-dimethylchroman-4-yl)methanesulfonamide] | ≤ 24% | – | –
CC1(C)COc2cc(F)ccc2C1CS(N)(=O)=O (single isomer, unassigned) [Compound 44, (R*)-(7-fluoro-3,3-dimethylchroman-4-yl)methanesulfonamide] | – | C (25-55% (C)) | 518 ± 109
CC1(C)CC(CS(N)(=O)=O)c2ccc(F)cc2O1 (single isomer, unassigned) [Compound 45, (R*)-(7-fluoro-2,2-dimethylchroman-4-yl)methanesulfonamide] | 71 to 100% | – | 144 ± 35
CC1(C)CC(CS(N)(=O)=O)c2ccc(F)cc2O1 (single isomer, unassigned) [Compound 46, (S*)-(7-fluoro-2,2-dimethylchroman-4-yl)methanesulfonamide] | – | A (71-100% (A)) | 145 ± 27
Cc1ccc2c(c1)OCCC2CS(N)(=O)=O (single isomer, unassigned) [Compound 57, (S*)-(7-methylchroman-4-yl)methanesulfonamide] | ≤ 24% | – | –
N#Cc1ccc2c(c1)OCCC2CS(N)(=O)=O (single isomer, unassigned) [Compound 59, (S*)-(7-cyanochroman-4-yl)methanesulfonamide] | ≤ 24% | – | –
N#Cc1ccc2c(c1)OCCC2CS(N)(=O)=O (single isomer, unassigned) [Compound 60, (R*)-(7-cyanochroman-4-yl)methanesulfonamide] | – | C (25-55% (C)) | –
C[C@H]1COc2cc(F)c(F)cc2[C@H]1CS(N)(=O)=O (stereo in doubt) [Compound 7, ((3R*,4S*)-6,7-difluoro-3-methylchroman-4-yl)methanesulfonamide] | 25 to 55% | – | –
C[C@@H]1COc2cc(F)c(F)cc2[C@@H]1CS(N)(=O)=O (stereo in doubt) [Compound 8, ((3S*,4R*)-6,7-difluoro-3-methylchroman-4-yl)methanesulfonamide] | 25 to 55% | – | –
C[C@@H]1COc2cc(F)c(F)cc2[C@H]1CS(N)(=O)=O (stereo in doubt) [Compound 9, ((3S*,4S*)-6,7-difluoro-3-methylchroman-4-yl)methanesulfonamide] | 25 to 55% | – | –
C[C@H]1COc2cc(F)c(F)cc2[C@@H]1CS(N)(=O)=O (stereo in doubt) [Compound 10, ((3R*,4R*)-6,7-difluoro-3-methylchroman-4-yl)methanesulfonamide] | ≤ 24% | – | –
CC[C@@H]1C[C@H](CS(N)(=O)=O)c2ccc(F)cc2O1 (stereo in doubt) [Compound 11, ((2R*,4S*)-2-ethyl-7-fluorochroman-4-yl)methanesulfonamide] | 71 to 100% | – | 134 ± 32
